This experiment relates to ApoB mRNA level in the liver. Briefly: Liver ApoB mRNA knockdown by 1:57 SNALP with ApoB siRNA in mice (QuantiGene assay, normalized to GAPDH mRNA). The note with it: IV bolus 0.05 mg/kg siRNA, mouse liver 48 h after dosing, compared to SNALP containing the C2K benchmark cationic lipid. The experiment is classed as in vivo, female BALB/c mice. As to the method: In particular, the objective of this study was to assess the ApoB dose response gene silencing activity in the mouse liver of 1:57 SNALP containing various novel trialkyl cationic lipids of Formula I. The ApoB siRNA sequence used in this study is provided in Table 1.
Just prior to the first treatment, animals were weighed and dose amounts were calculated based on the weight of individual animals (equivalent to 10 mL/kg, rounded to the nearest 10 μL). The test article was administered by IV injection through the tail vein once on Day 0 (1 dose total per animal).
Animals were sacrificed on Day 2, 48 h after test article administration. […] A brief necropsy was performed and observations recorded. […]
Body weight was reported for individual animals in addition to group mean and standard deviation of the group mean. Data were expressed in terms of the measured unit (grams) and the group mean difference from PBS vehicle control treatment was calculated for this expression (include SD). For body weights, individual animal data were also expressed as % of pre-treatment value and the group means were expressed as % change from pre-treatment value (include SD). […] Drug activity was measured using a QuantiGene assay for ApoB mRNA level in the liver (normalized to GAPDH mRNA level). […] Data were expressed in terms of the measured unit as well as difference from PBS vehicle control treatment. […]

For `CCCCC/C=C\C/C=C\CCCCCCCCC(OC(=O)CCCCN(C)C)C(O)(CCCCCCCC/C=C\C/C=C\CCCCC)CCCCCCCC/C=C\C/C=C\CCCCC` (stereo not shown) [Compound 13-B4, (6Z,9Z,29Z,32Z)-20-hydroxy-20-((9Z,12Z)-octadeca-9,12-dienyl)octatriaconta-6,9,29,32-tetraen-19-yl 5-(dimethylamino)pentanoate], the “liver ApoB mRNA knockdown activity (ApoB silencing activity)” value is on record as “unexpectedly improved ApoB silencing activity”.

Values taken from patent publication US8466122B2, “Trialkyl cationic lipids and methods of use thereof” (Protiva Biotherapeutics, Inc., priority 2010, dated 2013).
